target: Neuraminidase (Influenza A virus (A/Puerto Rico/8/1934(H1N1)), UniProt P03468); test: Inhibition of neuraminidase in Influenza A; format: functional
Sequence (P03468 whole entry): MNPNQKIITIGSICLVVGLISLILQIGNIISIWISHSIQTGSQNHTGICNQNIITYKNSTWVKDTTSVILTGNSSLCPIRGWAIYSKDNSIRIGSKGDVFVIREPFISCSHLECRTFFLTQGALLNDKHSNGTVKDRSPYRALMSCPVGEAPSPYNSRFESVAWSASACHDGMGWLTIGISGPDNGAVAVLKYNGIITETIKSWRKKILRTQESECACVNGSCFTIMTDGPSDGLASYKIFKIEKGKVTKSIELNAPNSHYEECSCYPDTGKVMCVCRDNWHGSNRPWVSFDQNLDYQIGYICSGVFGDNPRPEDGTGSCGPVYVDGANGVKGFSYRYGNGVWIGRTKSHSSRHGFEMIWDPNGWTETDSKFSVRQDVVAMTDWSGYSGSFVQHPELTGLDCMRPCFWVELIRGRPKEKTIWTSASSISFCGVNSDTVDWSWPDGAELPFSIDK

Row | Compound | IC50 [nM]
1 | CCC1(CC)CN([C@@H]2C=C(C(=O)O)C[C@H](N)[C@H]2NC(C)=O)C1 | 265
2 | CC(=O)N[C@H]1[C@H](N2CCCCCCC2)C=C(C(=O)O)C[C@@H]1N | 26
3 | CC(=O)N[C@H]1[C@H](N2CCOCC2)C=C(C(=O)O)C[C@@H]1N | 260
4 | CC(=O)N[C@H]1[C@H](N2C3CCCC2CC3)C=C(C(=O)O)C[C@@H]1N | 32
5 | CCCC1CCN([C@@H]2C=C(C(=O)O)C[C@H](N)[C@H]2NC(C)=O)CC1 | 40
6 | CC(=O)N[C@H]1[C@H](N2CCCCC2)C=C(C(=O)O)C[C@@H]1N | 25
7 | CCC1CCN([C@@H]2C=C(C(=O)O)C[C@H](N)[C@H]2NC(C)=O)CC1 | 52
8 | CC(=O)N[C@H]1[C@H](N2CCC(C)CC2)C=C(C(=O)O)C[C@@H]1N | 51
9 | CC(=O)N[C@H]1[C@H](N2CCCCC[C@@H]2CO)C=C(C(=O)O)C[C@@H]1N | 8
10 | CC(=O)N[C@H]1[C@H](N2CCCCCC2)C=C(C(=O)O)C[C@@H]1N | 35
11 | CC(=O)N[C@H]1[C@H](N2CCCC2)C=C(C(=O)O)C[C@@H]1N | 310
12 | CC(=O)N[C@H]1[C@H](N2CCN(C)CC2)C=C(C(=O)O)C[C@@H]1N | 1900
13 | CC(=O)N[C@H]1[C@H](N2CCC2)C=C(C(=O)O)C[C@@H]1N | 1000
14 | CC(=O)N[C@H]1[C@H](N2CCCCCCCC2)C=C(C(=O)O)C[C@@H]1N | 75
